# Data published in PubChem BioAssay AID330 (DTP/NCI, 2004).
# Where “and” joins values, the source holds several entries; their conditions need not be identical. Equal values may be shown once. Inconclusive results and toxic doses are left out.
# Test system: P388 leukemia ip, CD2F1 mice, survival T/C
# Assay: NCI In Vivo Anticancer Drug Screen. Data for tumor model P388 Leukemia (intraperitoneal) in CD2F1 (CDF1) mice
# Details: endpoint: median survival time, higher = longer survival
# Procedure, shortened: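 Mice carrying the transplanted tumor received test compound or vehicle. Survival was recorded in each group, and the value is the treated-group measurement divided by that of the vehicle-treated control group.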
# [1] = dose: 50.0 mg/kg/injection, schedule: Q01DX009 (ip), vehicle: Klucel (hydroxypropylcellulose) (HPC)
# [2] = dose: 100.0 mg/kg/injection, schedule: Q01DX009 (ip), vehicle: Klucel (hydroxypropylcellulose) (HPC)
# [3] = dose: 200.0 mg/kg/injection, schedule: Q01DX009 (ip), vehicle: Klucel (hydroxypropylcellulose) (HPC)
# [4] = dose: 50.0 mg/kg/injection, schedule: Q04DX003 (ip), vehicle: saline with Tween-80
# [5] = dose: 100.0 mg/kg/injection, schedule: Q04DX003 (ip), vehicle: saline with Tween-80
# [6] = dose: 200.0 mg/kg/injection, schedule: Q04DX003 (ip), vehicle: saline with Tween-80
# [7] = dose: 400.0 mg/kg/injection, schedule: Q04DX003 (ip), vehicle: saline with Tween-80
# [8] = dose: 60.0 mg/kg/injection, schedule: Q01DX005 (ip), vehicle: saline with Tween-80
# [9] = dose: 120.0 mg/kg/injection, schedule: Q01DX005 (ip), vehicle: saline with Tween-80
# [10] = dose: 240.0 mg/kg/injection, schedule: Q01DX005 (ip), vehicle: saline with Tween-80
structure (smiles),measurement,setting,value
Cc1c(N)nc(C(CC(N)=O)NCC(N)C(N)=O)nc1C(=O)NC(C(=O)NC(C)C(O)C(C)C(=O)NC(C(=O)NCCc1nc(-c2nc(C(=O)NCCCNCCCc3ccccn3)cs2)cs1)C(C)O)C(OC1OC(CO)C(O)C(O)C1OC1OC(CO)C(O)C(OC(N)=O)C1O)c1cnc[nH]1 (stereo not drawn),T/C,"dose: 0.25 mg/kg/injection, schedule: Q01DX009 (ip), vehicle: water",110 % of control
same,T/C,"dose: 0.5 mg/kg/injection, schedule: Q01DX009 (ip), vehicle: water",104 % of control
same,T/C,"dose: 1.0 mg/kg/injection, schedule: Q01DX009 (ip), vehicle: water",111 % of control
same,T/C,"dose: 2.0 mg/kg/injection, schedule: Q01DX009 (ip), vehicle: water",101 % of control
same,T/C,"dose: 4.0 mg/kg/injection, schedule: Q01DX009 (ip), vehicle: saline",104 % of control
same,T/C,"dose: 8.0 mg/kg/injection, schedule: Q01DX009 (ip), vehicle: saline",104 % of control
same,T/C,"dose: 16.0 mg/kg/injection, schedule: Q01DX009 (ip), vehicle: saline",112 % of control
same,T/C,"dose: 32.0 mg/kg/injection, schedule: Q01DX009 (ip), vehicle: saline",105 % of control
O=c1[nH]c(=O)n(-c2cccc3ccccc23)c(=O)n1-c1cccc2ccccc12,T/C,[1],100 % of control
same,T/C,[2],108 % of control
same,T/C,[3],105 % of control
COc1cc2cc3c(c(O)c2c(O)c1/C=C/C(C)C)C(=O)CC(C)(OC(C)=O)C3 (stereo not drawn),T/C,"dose: 2.5 mg/kg/injection, schedule: Q01DX005 (ip), vehicle: Klucel (hydroxypropylcellulose) (HPC)",103 % of control
same,T/C,"dose: 5.0 mg/kg/injection, schedule: Q01DX005 (ip), vehicle: Klucel (hydroxypropylcellulose) (HPC)",117 % of control
O=C/C=C/c1ccc([N+](=O)[O-])cc1,T/C,"dose: 25.0 mg/kg/injection, schedule: Q04DX003 (ip), vehicle: saline with Tween-80",100 % of control
same,T/C,[4],110 % of control
same,T/C,[5],105 % of control
COc1ccc2c(c1)CC(=CO)CC2=O.COc1ccc2c(c1)CC/C(=C/O)C2=O.[Cu],T/C,"dose: 37.5 mg/kg/injection, schedule: Q01DX009 (ip), vehicle: saline with Tween-80",100 % of control
same,T/C,"dose: 75.0 mg/kg/injection, schedule: Q01DX009 (ip), vehicle: saline with Tween-80",90 % of control
same,T/C,"dose: 100.0 mg/kg/injection, schedule: Q01DX009 (ip), vehicle: saline with Tween-80",95 % of control
same,T/C,"dose: 150.0 mg/kg/injection, schedule: Q01DX009 (ip), vehicle: saline with Tween-80",109 % of control
same,T/C,"dose: 200.0 mg/kg/injection, schedule: Q01DX009 (ip), vehicle: saline with Tween-80",123 % of control
same,T/C,[6],91 % of control
same,T/C,[7],91 % of control
C/C(=C\N1CCN(c2ccc(F)cc2)CC1)C(=O)c1ccc(F)cc1,T/C,[4],101 % of control
same,T/C,[5],99 % of control
same,T/C,[6],98 % of control
same,T/C,[7],117 % of control
O=C1c2sccc2[C@H](NC(=O)C(F)(F)F)[C@@H]1Cl,T/C,[8],100 % of control
same,T/C,[9],100 % of control
same,T/C,[10],100 % of control
CCCC(OC)=C(C(=O)OCC)C(=O)OCC,T/C,"dose: 50.0 mg/kg/injection, schedule: Q01DX009 (ip), vehicle: saline",93 % of control
same,T/C,"dose: 100.0 mg/kg/injection, schedule: Q01DX009 (ip), vehicle: saline",94 % of control
same,T/C,"dose: 200.0 mg/kg/injection, schedule: Q01DX009 (ip), vehicle: saline",89 % of control
COc1ccc(-c2cnc3[nH]c(=O)[nH]c(=O)c3n2)cc1,T/C,"dose: 100.0 mg/kg/injection, schedule: Q01DX001 (ip), vehicle: saline",100 % of control
same,T/C,"dose: 200.0 mg/kg/injection, schedule: Q01DX001 (ip), vehicle: saline",97 % of control
same,T/C,"dose: 400.0 mg/kg/injection, schedule: Q01DX001 (ip), vehicle: saline",90 % of control
CC1(C)OCC(C2OC(C)(C)OC2C2OC(O)C=CC2=O)O1 (stereo not drawn),T/C,"dose: 0.78 mg/kg/injection, schedule: Q01DX009 (ip), vehicle: distilled water + Tween-80",108 % of control and 103 % of control
same,T/C,"dose: 1.56 mg/kg/injection, schedule: Q01DX009 (ip), vehicle: distilled water + Tween-80",116 % of control and 103 % of control
same,T/C,"dose: 3.13 mg/kg/injection, schedule: Q01DX009 (ip), vehicle: distilled water + Tween-80",100 % of control and 94 % of control
same,T/C,"dose: 6.25 mg/kg/injection, schedule: Q01DX009 (ip), vehicle: distilled water + Tween-80",100 % of control
CN(C)c1c2c(oc(=O)c1Cl)-c1ccccc1SCC2,T/C,[8],101 % of control
same,T/C,[9],100 % of control
same,T/C,[10],91 % of control
COc1ccc(N=Cc2cc3c(cc2Br)OCO3)cc1,T/C,"dose: 25.0 mg/kg/injection, schedule: Q01DX009 (ip), vehicle: other",97 % of control
same,T/C,"dose: 50.0 mg/kg/injection, schedule: Q01DX009 (ip), vehicle: other",96 % of control
same,T/C,"dose: 100.0 mg/kg/injection, schedule: Q01DX009 (ip), vehicle: other",94 % of control
same,T/C,"dose: 200.0 mg/kg/injection, schedule: Q01DX009 (ip), vehicle: other",100 % of control
same,T/C,"dose: 400.0 mg/kg/injection, schedule: Q01DX009 (ip), vehicle: other",100 % of control
CCn1cnc2c(=S)nc(N)[nH]c21,T/C,"dose: 25.0 mg/kg/injection, schedule: Q01DX009 (ip), vehicle: Klucel (hydroxypropylcellulose) (HPC)",105 % of control
Clc1cc2c(c(CSc3nc4ccccc4n4cccc34)c1)OCOC2,T/C,[1],96 % of control
same,T/C,[2],96 % of control
same,T/C,[3],98 % of control
N#Cc1c(NCc2ccccc2)nc2c3ccccc3ccn2c1=O,T/C,"dose: 25.0 mg/kg/injection, schedule: Q04DX002 (ip), vehicle: saline with Tween-80",95 % of control
same,T/C,"dose: 50.0 mg/kg/injection, schedule: Q04DX002 (ip), vehicle: saline with Tween-80",97 % of control
same,T/C,"dose: 100.0 mg/kg/injection, schedule: Q04DX002 (ip), vehicle: saline with Tween-80",95 % of control
CCOC(=O)CCC(NC(=O)c1ccc(NCc2ccc3nc(N)nc(N)c3c2C)cc1)C(=O)OCC (stereo not drawn),T/C,"dose: 0.01 mg/kg/injection, schedule: Q01DX009 (ip), vehicle: saline + alcohol",108 % of control and 109 % of control
same,T/C,"dose: 0.02 mg/kg/injection, schedule: Q01DX009 (ip), vehicle: saline + alcohol",98 % of control and 113 % of control
same,T/C,"dose: 0.03 mg/kg/injection, schedule: Q01DX009 (ip), vehicle: saline + alcohol",153 % of control and 162 % of control
same,T/C,"dose: 0.06 mg/kg/injection, schedule: Q01DX001 (ip), vehicle: saline + alcohol",100 % of control and 88 % of control
same,T/C,"dose: 0.06 mg/kg/injection, schedule: Q01DX009 (ip), vehicle: saline + alcohol",170 % of control
same,T/C,"dose: 0.13 mg/kg/injection, schedule: Q01DX001 (ip), vehicle: saline + alcohol",111 % of control and 117 % of control
same,T/C,"dose: 0.25 mg/kg/injection, schedule: Q01DX001 (ip), vehicle: saline + alcohol",109 % of control and 110 % of control
CCOC(=O)CCCCCNC(=O)N1c2c(nc(N)[nH]c2=O)NCC1CNc1ccc(C(=O)NC(CCC(=O)O)C(=O)O)cc1 (stereo not drawn),T/C,"dose: 100.0 mg/kg/injection, schedule: Q01DX009 (ip), vehicle: sodium bicarbonate",97 % of control
same,T/C,"dose: 200.0 mg/kg/injection, schedule: Q01DX009 (ip), vehicle: sodium bicarbonate",91 % of control
same,T/C,"dose: 400.0 mg/kg/injection, schedule: Q01DX009 (ip), vehicle: sodium bicarbonate",97 % of control
CCCCCCCCNC(=O)OCc1c2ccccc2cc2ccccc12,T/C,[1],98 % of control
same,T/C,[2],101 % of control
same,T/C,[3],98 % of control
CCC1=C[C@H]2CN(CCc3c([nH]c4ccccc34)[C@@](OC(C)=O)(c3cc4c(cc3OC)N(C)[C@H]3[C@@](O)(C(=O)NCCSc5ccccc5)[C@H](O)[C@]5(CC)C=CCN6CC[C@]43[C@@H]65)C2)C1,T/C,"dose: 0.5 mg/kg/injection, schedule: Q01DX001 (ip), vehicle: water",107 % of control
same,T/C,"dose: 8.0 mg/kg/injection, schedule: Q01DX001 (ip), vehicle: water",174 % of control
same,T/C,"dose: 16.0 mg/kg/injection, schedule: Q01DX001 (ip), vehicle: water",163 % of control and 184 % of control
Fc1cccc(C(Nc2nncs2)Nc2nncs2)c1,T/C,"dose: 50.0 mg/kg/injection, schedule: Q01DX005 (ip), vehicle: Klucel (hydroxypropylcellulose) (HPC)",108 % of control and 97 % of control
same,T/C,"dose: 100.0 mg/kg/injection, schedule: Q01DX005 (ip), vehicle: Klucel (hydroxypropylcellulose) (HPC)",112 % of control and 114 % of control
same,T/C,"dose: 400.0 mg/kg/injection, schedule: Q01DX005 (ip), vehicle: Klucel (hydroxypropylcellulose) (HPC)",159 % of control
COc1cc2cc3cc(-c4ccc(Cl)cc4)c(N4CCCCC4)nc3nc2cc1OC,T/C,"dose: 3.75 mg/kg/injection, schedule: Q01DX005 (ip), vehicle: saline with Tween-80",92 % of control
same,T/C,"dose: 7.5 mg/kg/injection, schedule: Q01DX005 (ip), vehicle: saline with Tween-80",87 % of control
same,T/C,"dose: 30.0 mg/kg/injection, schedule: Q01DX005 (ip), vehicle: saline with Tween-80",86 % of control
same,T/C,[10],91 % of control
